Measured values reported in US6903235B2, “Pharmaceutical-grade ferric citrate” (Panion & BF Biotech Inc., priority 2003, dated 2005).

Assay: Stability of the product at 40° C. / 75% RH (ferric citrate assay and ferric assay by titration)
Type: physicochemical
Conditions: Temperature 40° C. ± 2° C., Humidity 75% ± 5% RH
Experimental: 1.1.3. Stability of the Product
0.5 g of ferric citrate, accurately weighed, in 100 mL of water and 5 mL of hydrochloric acid were added in a flask on a water bath until dissolved. 3 g of potassium iodide and 5 mL of hydrochloric acid were added to the flask to form a mixture, and a stopper was inserted in the flask. The mixture was allowed to stand for 15 minutes, and the librated iodine was titrated with 0.1 N sodium thiosulfate solution using a starch test solution as an indicator. A blank test was performed with the same quantities of reagents and in the same manner, and corrections were made if necessary. Each milliliter of 0.1 N sodium thiosulfate is equivalent to 24.496 mg of FeC6H5O7 and each milliliter of 0.1 N sodium thiosulfate is equivalent to 5.585 mg of Iron(III).

Substance: ferric citrate [FeC6H5O7 product]
- Ferric assay (1st month): 17.68%
- Ferric citrate assay (1st month): 99.65%
- Ferric assay (2nd month): 17.66%
- Ferric citrate assay (2nd month): 99.58%
- Ferric assay (3rd month): 17.70%
- Ferric citrate assay (3rd month): 99.79%
- Ferric assay (6th month): 17.81%
- Ferric citrate assay (6th month): 100.37%
- Ferric assay (Initial): 17.69%
- Ferric citrate assay (Initial): 99.70%
